Source: patent publication US9522942B2, “Analogs of temporin-SHa and uses thereof” (UNIVERSITE PIERRE ET MARIE CURIE (PARIS 6), priority 2009, dated 2016)
Entries after “also recorded” stand apart in the source; their conditions may differ. Ends that are not written are not given here.

How the values were obtained:
[1] = system: Staphylococcus aureus (ATCC 25923); details: 18 hrs at 37° C., LB medium
Description: (§5) The following strains were used for the antibacterial activity tests: Escherichia coli (ATCC 25922 and ATCC 35218), Staphylococcus aureus (ATCC 25923), Enterococcus faecalis (ATCC 29212), Bacillus megaterium and Pseudomonas aeruginosa (ATCC 27853).
(§6) For each strain, a standard inoculum of 10^5 to 10^6 bacteria/mL (exponential growth phase) was prepared. To this end, a colony isolated on LB agar previously inoculated with one of the strains was cultured in 10 mL of LB broth medium. Liquid cultures were then incubated for 2 to 3 hrs at 37° C. with shaking for the bacteria to reach exponential growth phase. Each bacterial suspension was diluted in LB medium to an OD630nm of 0.01 which corresponds to a concentration of 10^5-10^6 cfu/mL (cfu: colony forming unit).
(§7) The minimum inhibitory concentration (MIC) of each peptide was determined by a test of growth inhibition in broth medium. […] The test was performed in a sterile 96-well microtiter plate. A series of increasing concentrations of each peptide (1 to 400 μM) was first prepared in sterile MilliQ water containing 5% dimethyl sulphoxide (DMSO). […] 50 μL of peptide were aliquoted into each well with 50 μL of bacterial suspension (10^5-10^6 cfu/mL). The microtiter plate was then incubated for 18 hrs at 37° C. with shaking. Bacterial growth was determined by measuring OD at 630 nm (turbidity) on a plate reader. […]

Gram-negative strains = details: summary in text for all Gram-negative strains tested
Description: as §5, §6, §7

[2] = target: Leishmania infantum promastigotes; type: cell-based; details: 72 hours at 26° C., luciferase luminescence (FIG. 2 B), read-out: IC50, promastigote form
Description: The antiparasitic activity of the peptides was evaluated on two forms of the parasite Leishmania infantum, the promastigote form and the amastigote form.
The tests of anti-Leishmania activity were carried out with a Leishmania infantum cell line αNEO-αLUC This cell line was obtained by transforming Leishmania infantum strain MHOM/MA/67/ITMAP-263 with the vector pGM αNEO-αLUC containing the luciferase reporter gene (LUC) and the neomycin resistance gene (NEO) such as described in Roy et al. (2000). It was maintained in culture in its two forms, promastigote and amastigote.
Leishmania infantum promastigotes were maintained at 26° C. by one or two weekly passages depending on the number of parasites in the inoculum, in SDM 79 medium supplemented with 10 to 20% decomplemented foetal calf serum and […] porcine haemin and in the presence of 100 U/mL penicillin and 100 μg/mL streptomycin (Brun & Shonenberger, 1979). […] Cell densities were determined by flow cytometry in the presence of propidium iodide on a Facscan cytometer (Excalibur, Becton-Dickinson, Ivry, France).
Emitted luminescence was measured with a luminescence plate reader (Victor, PerkinElmer). […]
The percentage growth was calculated according to the following formula: % growth=[(L mean−bgd)peptide×100]/(L mean−bgd)control […]

Saccharomyces cerevisiae = details: YPD medium, 30° C.
Description: (§8) The minimum inhibitory concentration (MIC) of each peptide was determined by a test of growth inhibition in broth medium. […] The test was performed in a sterile 96-well microtiter plate. A series of increasing concentrations of each peptide (1 to 400 μM) was first prepared in sterile MilliQ water containing 5% dimethyl sulphoxide (DMSO). […] 50 μL of peptide were aliquoted into each well with 50 μL of bacterial suspension (10^5-10^6 cfu/mL). The microtiter plate was then incubated for 18 hrs at 37° C. with shaking. Bacterial growth was determined by measuring OD at 630 nm (turbidity) on a plate reader. Tests were carried out in triplicate for each peptide concentration.
(§9) These strains were first grown on YPD agar for a minimum of 48 hrs. Yeast suspensions were then prepared, exactly as for bacteria, and adjusted to 10^5-10^6 cfu/mL in YPD broth medium.
(§10) The antifungal activity test corresponds to the growth inhibition test in broth medium used for the bacteria (see above) in which LB medium was replaced by YPD medium. Fungal strains were incubated at 30° C.

[3] = system: Candida albicans (ATCC 90028); details: YPD medium, 30° C.
Description: as §8, §9, §10

[4] = system: human monocyte cell line THP-1; details: THP-1, 72 hrs, MTT test (FIG. 3), at antimicrobial concentrations
Description: The cytotoxic activity of the antimicrobial peptides was determined on a human monocyte cell line THP-1. Cells were cultured in RPMI medium (10% FCS, 100 U/mL penicillin, 100 μg/mL streptomycin) until reaching exponential growth phase. After counting in a Thoma counting chamber, cell density was adjusted to 6.25×10^5 cells/mL in RPMI 1640 medium. Five-fold concentrated solutions of antimicrobial peptides were prepared in this RPMI medium (300 to 4.7 μM).
Monocytes were aliquoted at 80 μL of cell suspension per well (corresponding to 5×10^4 monocytes/well or 5×10^5 cells/mL final) and mixed with 20 μL of peptide solution (60 to 0.94 μM final concentration). Negative and positive controls were carried out according to the same protocol as for the tests of anti-Leishmania activity. Experiments were done in triplicate for each peptide concentration. Cells were incubated at 37° C., in a 5% CO2 atmosphere for 72 hrs.
After 72 hours, the number of viable THP-1 cells was calculated indirectly by the MTT test (Mosmann, 1983). […] Blue formazan can be detected spectrophotometrically at 570 nm.
A 10 mg/mL MTT solution in PBS buffer (pH 7.4), filtered on a 0.45 μm filter, was aliquoted at 10 μL per well. Plates were then incubated for 4 hrs at 37° C. […] The OD at 570 nm of each well was then measured (Victor plate reader, PerkinElmer) to calculate the IC50.

[5] = system: Escherichia coli (ATCC 25922); details: 18 hrs at 37° C., LB medium
Description: as §5, §6, §7

Hemolytic test = type: cell-based; details: erythrocytes (washed red blood cells), pH 7.4; human erythrocytes, 1 hr at 37° C., concentration inducing hemolysis of 50% of the cells; read-out: LC50 erythrocytes
Description: (§1) The hemolytic activity of the antimicrobial peptides was assessed using human erythrocytes from healthy donors. Red blood cell hemolysis is manifested by the release into the reaction medium of hemoglobin, the concentration of which is determined spectrophotometrically at 450 nm.
(§2) Red blood cells were separated from plasma and white blood cells by centrifugation of human blood (900 g, 10 min). The pellet containing red blood cells was washed three times with PBS buffer, pH 7.4. After counting on a Malassez cell, a stock solution of 2.10^7 red blood cells/mL was prepared in the same buffer. A series of concentrations of the peptides to be tested was prepared (1 to 200 μM).
(§3) The test was carried out as follows: 100 μL of the different peptide concentrations were added to 100 μL of the red blood cell suspension. After 1 hr of incubation at 37° C. followed by centrifugation (12,000 g, 15 sec), absorbance of the supernatant was measured at 450 nm. The negative control for this test (0% hemolysis) contained 100 μL of PBS buffer in place of the peptide solution. The positive control (100% hemolysis) contained 100 μL of 0.1% Triton in place of the peptide solution.
(§4) The LC50 value obtained is the mean of three experiments carried out in triplicate and corresponds to the peptide concentration inducing hemolysis of 50% of the cells.

human erythrocytes = test: Hemolytic test; type: cell-based; details: relative to temporin-SHa
Description: as §1, §2, §3, §4

[6] = system: Pseudomonas aeruginosa (ATCC 27853); test: Growth inhibition test in broth medium (MIC); type: cell-based; details: 18 hrs at 37° C., LB medium
Description: as §5, §6, §7

[7] = system: Escherichia coli (ATCC 35218); details: 18 hrs at 37° C., LB medium
Description: as §5, §6, §7

[8] = system: Enterococcus faecalis (ATCC 29212); details: 18 hrs at 37° C., LB medium
Description: as §5, §6, §7

Bacillus megaterium = details: 18 hrs at 37° C., LB medium
Description: as §5, §6, §7

[9] = system: Candida parapsilosis (ATCC 22019); test: Antifungal growth inhibition test in YPD broth (MIC); type: cell-based; details: YPD medium, 30° C.
Description: Fungal strains were incubated at 30° C.

Description for Escherichia coli ML-35p: as §6, §8
The growth inhibition negative control was obtained by replacing the solution containing the peptide with 50 μL of sterile MilliQ water containing 5% DMSO. […]

| Substance | MIC [1] | MIC, all Gram-negative strains tested (Gram-negative strains) | IC50 [2] | MIC (Saccharomyces cerevisiae) | MIC [3] | Cytotoxic effect on monocytes [4] | MIC [5] | HC50 at 1 hr (Hemolytic test) | Change in hemolytic activity as compared with temporin-SHa (human erythrocytes) | MIC [6] | MIC (Escherichia coli ML-35p) | MIC [7] | MIC [8] | MIC (Bacillus megaterium) | MIC [9] |
| --- | --- | --- | --- | --- | --- | --- | --- | --- | --- | --- | --- | --- | --- | --- | --- |
| FLKGIVGMLGKLF-NH2 [[K^3]temporin-SHa] | 3 µM | 3 µM | ~10 µM | 6.25 µM | 12.5 µM | not cytotoxic | 3 µM | 50 µM | twofold decrease; also recorded: twofold reduction | 3 µM | 3 µM | 3 µM | 10 µM | 1.5 µM | – |
| FLSGIVGMLGKLF-NH2 [temporin-SHa, F-L-S-G-I-V-G-M-L-G-K-L-F] | 3 µM | – | ~20 µM | 7.9 µM | 15 µM | not cytotoxic | 10 µM | 25 µM | – | 31.25 µM | 6.25 µM | 10 µM | 10 µM | 2.5 µM | 31.25 µM |
